Columns and labels:
[1] = system: PKB Ser473 phosphorylation in Rat1-myr-HA-p110 beta cells; experiment: Reverse protein array assay, PKB Ser473 phosphorylation in Rat1-myr-p110 beta cells; format: cell-based; conditions: 0.5 h, pAkt Ser473, 30 minutes incubation, read-out: p-PKB IC50
Procedure, shortened: (§1)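 Compound exposure lasted 30 min in Rat1 cells bearing membrane-targeted HA-p110 isoforms, using 8 serial concentrations. Arrayed lysates, each spotted at four dilutions, gave relative fluorescence signals for phospho-Ser473 PKB.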

PI3K alpha = target: T1, PI3K alpha (Homo sapiens, UniProt P42336); experiment: PI3K alpha kinase assay (Kinase-Glo luminescence); format: biochemical
T1 construct: p85(iSH2) fusion partner (see partner chain) (N); His tag (C); made in house; host or cells: baculovirus; Tn5 (Trichoplusia ni) or TiniPro insect cells
Procedure, shortened: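 Luminescent ATP-depletion assay (Kinase-Glo) with 10 nM PI3Kα and 10 μg/mL phosphatidylinositol as lipid substrate at 1 μM ATP. Incubation lasts 60 min at room temperature.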

[2] = system: S6 Ribosomal Protein phosphorylation Ser235/236 in TSC1 null mouse embryo fibroblast (MEF) cells; experiment: Reverse protein array assay, S6 Ribosomal Protein phosphorylation Ser235/236 in TSC1 null MEF cells; format: cell-based; conditions: 1 h, pS6 ribosomal protein Ser235/236, 60 minutes incubation, read-out: p-S6 IC50
Procedure, shortened: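 TSC1−/− MEFs, seeded and held ≥20 h at 37 °C/5% CO2, were exposed to 8-step serial compound dilutions (0.02% DMSO final; DMSO vehicle control) for 60 min at 37 °C. Cells were then lysed on ice for 10 min and lysates spotted onto reverse protein array chips.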

[3] = system: PKB Ser473 phosphorylation in Rat1-myr-HA-p110 alpha cells; experiment: Reverse protein array assay, PKB Ser473 phosphorylation in Rat1-myr-p110 alpha cells; format: cell-based; conditions: 0.5 h, pAkt Ser473, 30 minutes compound incubation, read-out: p-PKB IC50
Procedure, shortened: as §1

T1 sequence (P42336 with tags, fused parts or gaps limits assumed): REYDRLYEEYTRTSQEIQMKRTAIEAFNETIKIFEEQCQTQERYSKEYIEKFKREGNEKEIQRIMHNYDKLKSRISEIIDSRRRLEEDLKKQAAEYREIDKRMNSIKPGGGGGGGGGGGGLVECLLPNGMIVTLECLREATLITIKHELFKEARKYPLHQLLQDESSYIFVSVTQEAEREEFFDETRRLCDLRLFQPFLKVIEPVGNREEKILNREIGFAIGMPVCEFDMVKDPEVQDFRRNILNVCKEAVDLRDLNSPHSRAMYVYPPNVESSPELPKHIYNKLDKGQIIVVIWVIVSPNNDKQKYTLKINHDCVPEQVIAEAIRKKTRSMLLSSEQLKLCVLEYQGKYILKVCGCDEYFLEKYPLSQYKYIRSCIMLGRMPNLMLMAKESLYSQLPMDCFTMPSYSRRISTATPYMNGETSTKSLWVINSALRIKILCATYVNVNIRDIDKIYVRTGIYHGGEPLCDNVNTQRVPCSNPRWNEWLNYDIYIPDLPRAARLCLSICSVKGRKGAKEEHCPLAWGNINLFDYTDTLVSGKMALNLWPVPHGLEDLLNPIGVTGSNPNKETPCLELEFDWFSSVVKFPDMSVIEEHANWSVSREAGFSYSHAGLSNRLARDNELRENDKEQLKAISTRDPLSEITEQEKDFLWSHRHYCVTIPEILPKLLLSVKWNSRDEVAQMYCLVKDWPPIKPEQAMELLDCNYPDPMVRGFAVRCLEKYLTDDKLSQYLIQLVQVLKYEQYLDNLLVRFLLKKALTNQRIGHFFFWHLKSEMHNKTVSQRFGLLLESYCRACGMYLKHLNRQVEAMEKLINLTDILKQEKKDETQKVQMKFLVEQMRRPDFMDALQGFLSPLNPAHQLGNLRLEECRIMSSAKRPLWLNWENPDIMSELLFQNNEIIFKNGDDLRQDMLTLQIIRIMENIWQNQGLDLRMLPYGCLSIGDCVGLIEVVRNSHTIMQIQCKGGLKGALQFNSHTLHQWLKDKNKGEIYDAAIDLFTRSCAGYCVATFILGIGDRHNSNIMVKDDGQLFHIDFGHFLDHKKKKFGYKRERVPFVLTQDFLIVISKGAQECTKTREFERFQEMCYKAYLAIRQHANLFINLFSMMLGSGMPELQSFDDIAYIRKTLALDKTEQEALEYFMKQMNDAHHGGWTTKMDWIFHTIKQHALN

Row | IC50 [1] [nM] | IC50 (PI3K alpha) [nM] | IC50 [3] [nM] | SMILES | IC50 [2] [nM]
1 | 139 | 14 | 25 | CCn1cc(-n2c(=O)n(C)c3cnc4ccc(-c5cncc(OC(C)C)c5)cc4c32)c(C)n1 [Example 58.4, 1-(1-Ethyl-3-methyl-1H-pyrazol-4-yl)-8-(5-isopropoxy-pyridin-3-yl)-3-methyl-1,3-dihydro-imidazo[4,5-c]quinolin-2-one] | 2
2 | 386 | 30 | 115 | COCCOc1cc(-c2ccc3ncc4c(c3c2)n(-c2cn(C)nc2C)c(=O)n4C)cnc1CO [Example 244, 1-(1,3-Dimethyl-1H-pyrazol-4-yl)-8-[6-hydroxymethyl-5-(2-methoxy-ethoxy)-pyridin-3-yl]-3-methyl-1,3-dihydro-imidazo[4,5-c]quinolin-2-one] | 25
3 | 8 | 7 | < 5 | CCNc1cc(-c2ccc3ncc4c(c3c2)n(-c2cn(CC)nc2C)c(=O)n4C)cnc1COC [Example 157, 8-(5-Ethylamino-6-methoxymethyl-pyridin-3-yl)-1-(1-ethyl-3-methyl-1H-pyrazol-4-yl)-3-methyl-1,3-dihydro-imidazo[4,5-c]quinolin-2-one] | 1
4 | 692 | 44 | 344 | Cc1nn(CCO)cc1-n1c(=O)n(C)c2cnc3ccc(-c4cncc(N5CCOCC5)c4)cc3c21 [Example 175.3, 1-[1-(2-Hydroxy-ethyl)-3-methyl-1H-pyrazol-4-yl]-3-methyl-8-(5-morpholin-4-yl-pyridin-3-yl)-1,3-dihydro-imidazo[4,5-c]quinolin-2-one] | 151
5 | 45 | 11 | 36 | CCOc1cc(-c2ccc3ncc4c(c3c2)n(-c2cn(C)nc2C)c(=O)n4C)cnc1CO [Example 243, 1-(1,3-Dimethyl-1H-pyrazol-4-yl)-8-(5-ethoxy-6-hydroxymethyl-pyridin-3-yl)-3-methyl-1,3-dihydro-imidazo[4,5-c]quinolin-2-one] | 4
6 | 428 | 161 | 324 | COCCN(C)C(=O)Cn1cc(-n2c(=O)n(C)c3cnc4ccc(-c5ccccc5)cc4c32)c(C)n1 [Example 137, N-(2-Methoxy-ethyl)-N-methyl-2-[3-methyl-4-(3-methyl-2-oxo-8-phenyl-2,3-dihydro-imidazo[4,5-c]quinolin-1-yl)-pyrazol-1-yl]-acetamide] | 9
7 | 7 | 8 | 13 | Cc1nn(C)cc1-n1c(=O)n(C)c2cnc3ccc(-c4ccc(N)nc4)cc3c21 [Example 23.1, 8-(6-Amino-pyridin-3-yl)-1-(1,3-dimethyl-1H-pyrazol-4-yl)-3-methyl-1,3-dihydro-imidazo[4,5-c]quinolin-2-one] | 4
8 | 6 | 35 | 11 | Cc1nn(C(C)C)cc1-n1c(=O)n(C)c2cnc3ccc(-c4ccc(N)nc4)cc3c21 [Example 23.2, 8-(6-Amino-pyridin-3-yl)-1-(1-isopropyl-3-methyl-1H-pyrazol-4-yl)-3-methyl-1,3-dihydro-imidazo[4,5-c]quinolin-2-one] | 2
9 | 43 | 30 | 42 | COCc1cncc(-c2ccc3ncc4c(c3c2)n(-c2cn(C)nc2Cl)c(=O)n4C)c1 [Example 54.2, 1-(3-Chloro-1-methyl-1H-pyrazol-4-yl)-8-(5-methoxymethyl-pyridin-3-yl)-3-methyl-1,3-dihydro-imidazo[4,5-c]quinolin-2-one] | 1
10 | 38 | 13 | 36 | CCOc1ccc(-c2ccc3ncc4c(c3c2)n(-c2cn(CC(=O)N3CCC3)nc2C)c(=O)n4C)cn1 [Example 138, 1-[1-(2-Azetidin-1-yl-2-oxo-ethyl)-3-methyl-1H-pyrazol-4-yl]-8-(6-ethoxy-pyridin-3-yl)-3-methyl-1,3-dihydro-imidazo[4,5-c]quinolin-2-one] | 3
11 | 52 | 3 | 23 | Cc1nn(C)cc1-n1c(=O)n(C)c2cnc3ccc(-c4cncc(OC(F)F)c4)cc3c21 [Example 183, 8-(5-Difluoromethoxy-pyridin-3-yl)-1-(1,3-dimethyl-1H-pyrazol-4-yl)-3-methyl-1,3-dihydro-imidazo[4,5-c]quinolin-2-one] | 1
12 | 59 | 15 | 19 | CNC(=O)c1cc(-c2ccc3ncc4c(c3c2)n(-c2cn(C)nc2C)c(=O)n4C)cnc1N [Example 224.1, 2-Amino-5-[1-(1,3-dimethyl-1H-pyrazol-4-yl)-3-methyl-2-oxo-2,3-dihydro-1H-imidazo[4,5-c]quinolin-8-yl]-N-methyl-nicotinamide] | 3
13 | 24 | 5 | 19 | Cn1cc(-n2c(=O)n(C)c3cnc4ccc(-c5cnc(N)c(CO)c5)cc4c32)c(Cl)n1 [Example 169.3, 8-(6-Amino-5-hydroxymethyl-pyridin-3-yl)-1-(3-chloro-1-methyl-1H-pyrazol-4-yl)-3-methyl-1,3-dihydro-imidazo[4,5-c]quinolin-2-one] | 1.32
14 | 94 | 10 | 28 | COC(C)(C)c1cncc(-c2ccc3ncc4c(c3c2)n(-c2cn(C)nc2C)c(=O)n4C)c1 [Example 239, 1-(1,3-Dimethyl-1H-pyrazol-4-yl)-8-[5-(1-methoxy-1-methyl-ethyl)-pyridin-3-yl]-3-methyl-1,3-dihydro-imidazo[4,5-c]quinolin-2-one] | 1
15 | 55 | 22 | 26 | Cc1nn(C)cc1-n1c(=O)n(C)c2cnc3ccc(-c4cnc5c(c4)C(C)(C)C(=O)N5C)cc3c21 [Example 233, 1-(1,3-Dimethyl-1H-pyrazol-4-yl)-3-methyl-8-(1,3,3-trimethyl-2-oxo-2,3-dihydro-1H-pyrrolo[2,3-b]pyridin-5-yl)-1,3-dihydro-imidazo[4,5-c]quinolin-2-one] | 3
16 | 14 | 42 | 7 | CCOc1ccc(-c2ccc3ncc4c(c3c2)n(-c2cn(CCO)nc2C)c(=O)n4C)cn1 [Example 103.2, 8-(6-Ethoxy-pyridin-3-yl)-1-[1-(2-hydroxy-ethyl)-3-methyl-1H-pyrazol-4-yl]-3-methyl-1,3-dihydro-imidazo[4,5-c]quinolin-2-one] | 3

From patent US20140005163A1 (NOVARTIS AG, priority 2010, published 2014)
